System: HCV replicon, genotype-1a variant with glutamine 30 changed to glutamate in the NS5A protein
Assay: microbe, parasite or virus in culture
Format: cell-based, HCV genotype 1a
Conditions: HCV replicon genotype 1a Q30E (Q→E) variant; test compound titrated with an NS5A-targeting compound (BMS-790052 fixed at 200 nM); ranking of synergist activity
From the text: The NS5A synergistic inhibitory effect of test compounds can be determined using various amounts of an NS5A-targeting compound with titration of a second compound of interest. […] In one embodiment, the HCV genotype strain can be genotype 1a containing a change at amino acid 30 of the NS5A protein consisting of glutamine to glutamate. The test compound can be chosen from compounds listed above or from others present in the literature.

In the case of CC(C)N(C(=O)OC1(C(=O)N[C@H](c2nc(-c3ccc(-c4ccc(-c5c[nH]c([C@@H](NC(=O)C6(OC(=O)N(C(C)C)C(C)C)CC6)C(C)(C)C)n5)cc4)cc3)c[nH]2)C(C)(C)C)CC1)C(C)C [Compound L-38], the “Fold-Synergistic 1a (Q30E)” value was greater than 100 fold.

In the case of CC(C)N(C(=O)OC1(C(=O)N[C@H](c2nc(-c3ccc(-c4ccc(-c5c[nH]c([C@@H](NC(=O)C6(OC(=O)N(C(C)C)C(C)C)CC6)C6(C)CC6)n5)cc4)cc3)c[nH]2)C2(C)CC2)CC1)C(C)C [Compound L-39], the “Fold-Synergistic 1a (Q30E)” value was greater than 100 fold.

C[C@@H](OC(=O)NC1(C(=O)N[C@H](c2nc(-c3ccc(-c4ccc(-c5c[nH]c([C@@H](NC(=O)C6(NC(=O)O[C@H](C)C(F)(F)F)CC6)C6(C)CC6)n5)cc4)cc3)c[nH]2)C2(C)CC2)CC1)C(F)(F)F [Compound L-42] was tested, and the “Fold-Synergistic 1a (Q30E)” value was greater than 100 fold.

COC(=O)N1CCC(F)(F)C[C@H]1C(=O)N[C@H](c1nc(-c2ccc(-c3ccc(-c4c[nH]c([C@@H](NC(=O)[C@@H]5CC(F)(F)CCN5C(=O)OC)C(C)(C)C)n4)cc3)cc2)c[nH]1)C(C)(C)C [Compound L-43] was tested, and the “Fold-Synergistic 1a (Q30E)” value was greater than 100 fold.

In the case of C[C@@H](OC(=O)N(C)C1(C(=O)N[C@H](c2nc(-c3ccc(-c4ccc(-c5c[nH]c([C@@H](NC(=O)C6(N(C)C(=O)O[C@H](C)C(F)(F)F)CC6)C(C)(C)C)n5)cc4)cc3)c[nH]2)C(C)(C)C)CC1)C(F)(F)F [Compound L-44], the “Fold-Synergistic 1a (Q30E)” value was greater than 100 fold.

In the case of CC1(C(=O)N[C@H](c2nc(-c3ccc(-c4ccc(-c5c[nH]c([C@@H](NC(=O)C6(C)CC6)C(C)(C)C)n5)cc4)cc3)c[nH]2)C(C)(C)C)CC1 [Compound L-45], the “Fold-Synergistic 1a (Q30E)” value was greater than 100 fold.

In the case of CC(C)(C)OC(=O)N1CCCCC1(C)C(=O)N[C@H](c1nc(-c2ccc(-c3ccc(-c4c[nH]c([C@@H](NC(=O)C5(C)CCCCN5C(=O)OC(C)(C)C)C(C)(C)C)n4)cc3)cc2)c[nH]1)C(C)(C)C (stereo partly drawn) [Compound L-46a], the “Fold-Synergistic 1a (Q30E)” value was greater than 100 fold.

For CC(C)(C)OC(=O)NC1(C(=O)N[C@H](c2nc(-c3ccc(-c4ccc(-c5c[nH]c([C@@H](NC(=O)C6(NC(=O)OC(C)(C)C)CCC(F)(F)CC6)C(C)(C)C)n5)cc4)cc3)c[nH]2)C(C)(C)C)CCC(F)(F)CC1 [Compound L-49], the “Fold-Synergistic 1a (Q30E)” value was greater than 100 fold.

With CC(C)(NCC(F)(F)F)C(=O)N[C@H](c1nc(-c2ccc(-c3ccc(-c4c[nH]c([C@@H](NC(=O)C(C)(C)NCC(F)(F)F)C(C)(C)C)n4)cc3)cc2)c[nH]1)C(C)(C)C [Compound L-50] the “Fold-Synergistic 1a (Q30E)” value was greater than 100 fold.

With CC(C)(C)[C@H](NC(=O)[C@@H]1CCCCN1CC(F)(F)F)c1nc(-c2ccc(-c3ccc(-c4c[nH]c([C@@H](NC(=O)[C@@H]5CCCCN5CC(F)(F)F)C(C)(C)C)n4)cc3)cc2)c[nH]1 [Compound L-51] the “Fold-Synergistic 1a (Q30E)” value was greater than 100 fold.

In the case of CC(C)(C)[C@H](NC(=O)[C@@H]1CCCN1CC(F)(F)F)c1nc(-c2ccc(-c3ccc(-c4c[nH]c([C@@H](NC(=O)[C@@H]5CCCN5CC(F)(F)F)C(C)(C)C)n4)cc3)cc2)c[nH]1 [Compound L-52], the “Fold-Synergistic 1a (Q30E)” value was greater than 100 fold.

With CC1(C)CC(C(=O)N[C@H](c2nc(-c3ccc(-c4ccc(-c5c[nH]c([C@@H](NC(=O)C6CC(C)(C)C6)C(C)(C)C)n5)cc4)cc3)c[nH]2)C(C)(C)C)C1 [Compound L-53] the “Fold-Synergistic 1a (Q30E)” value was greater than 100 fold.

For COC1CC(C(=O)N[C@H](c2nc(-c3ccc(-c4ccc(-c5c[nH]c([C@@H](NC(=O)C6CC(OC)C6)C(C)(C)C)n5)cc4)cc3)c[nH]2)C(C)(C)C)C1 (stereo partly drawn) [Compound L-54], the “Fold-Synergistic 1a (Q30E)” value was greater than 100 fold.

With CC(C)(C)OC(=O)N1[C@H](C(=O)N[C@H](c2nc(-c3ccc(-c4ccc(-c5c[nH]c([C@@H](NC(=O)[C@@H]6COC(C)(C)N6C(=O)OC(C)(C)C)C(C)(C)C)n5)cc4)cc3)c[nH]2)C(C)(C)C)COC1(C)C [Compound L-55] the “Fold-Synergistic 1a (Q30E)” value was greater than 100 fold.

CC(C)(CO)C(=O)N[C@H](c1nc(-c2ccc(-c3ccc(-c4c[nH]c([C@@H](NC(=O)C(C)(C)CO)C(C)(C)C)n4)cc3)cc2)c[nH]1)C(C)(C)C [Compound L-56] was tested, and the “Fold-Synergistic 1a (Q30E)” value was greater than 100 fold.

In the case of CC(C)(C)OC(=O)N1CC2(CC(C(=O)N[C@H](c3nc(-c4ccc(-c5ccc(-c6c[nH]c([C@@H](NC(=O)C7CC8(C7)CN(C(=O)OC(C)(C)C)C8)C(C)(C)C)n6)cc5)cc4)c[nH]3)C(C)(C)C)C2)C1 (stereo partly drawn) [Compound L-57], the “Fold-Synergistic 1a (Q30E)” value was greater than 100 fold.

In the case of CC(C)(C)[C@H](NC(=O)C1(C)CC1(F)F)c1nc(-c2ccc(-c3ccc(-c4c[nH]c([C@@H](NC(=O)C5(C)CC5(F)F)C(C)(C)C)n4)cc3)cc2)c[nH]1 (stereo partly drawn) [Compound L-58a], the “Fold-Synergistic 1a (Q30E)” value was greater than 100 fold.

For CC(C)(C)OC(=O)N1CC(C)(C)OC[C@H]1C(=O)N[C@H](c1nc(-c2ccc(-c3ccc(-c4c[nH]c([C@@H](NC(=O)[C@@H]5COC(C)(C)CN5C(=O)OC(C)(C)C)C(C)(C)C)n4)cc3)cc2)c[nH]1)C(C)(C)C [Compound L-60], the “Fold-Synergistic 1a (Q30E)” value was greater than 100 fold.

For CC(C)(C)OC(=O)N1CCOC[C@H]1C(=O)N[C@H](c1nc(-c2ccc(-c3ccc(-c4c[nH]c([C@@H](NC(=O)[C@@H]5COCCN5C(=O)OC(C)(C)C)C(C)(C)C)n4)cc3)cc2)c[nH]1)C(C)(C)C [Compound L-61], the “Fold-Synergistic 1a (Q30E)” value was greater than 100 fold.

CN(CC(F)(F)F)C(C)(C)C(=O)N[C@H](c1nc(-c2ccc(-c3ccc(-c4c[nH]c([C@@H](NC(=O)C(C)(C)N(C)CC(F)(F)F)C(C)(C)C)n4)cc3)cc2)c[nH]1)C(C)(C)C [Compound L-62] was tested, and the “Fold-Synergistic 1a (Q30E)” value was greater than 100 fold.

In the case of CC(C)(C)OC(=O)N1CC(C)(C(=O)N[C@H](c2nc(-c3ccc(-c4ccc(-c5c[nH]c([C@@H](NC(=O)C6(C)CN(C(=O)OC(C)(C)C)C6)C(C)(C)C)n5)cc4)cc3)c[nH]2)C(C)(C)C)C1 [Compound L-63], the “Fold-Synergistic 1a (Q30E)” value was greater than 100 fold.

In the case of CC(C)(C)[C@H](NC(=O)[C@H]1CCCO1)c1nc(-c2ccc(-c3ccc(-c4c[nH]c([C@@H](NC(=O)[C@H]5CCCO5)C(C)(C)C)n4)cc3)cc2)c[nH]1 [Compound L-64], the “Fold-Synergistic 1a (Q30E)” value was greater than 100 fold.

With CC(C)(C)[C@H](NC(=O)[C@@H]1CCCO1)c1nc(-c2ccc(-c3ccc(-c4c[nH]c([C@@H](NC(=O)[C@@H]5CCCO5)C(C)(C)C)n4)cc3)cc2)c[nH]1 [Compound L-65] the “Fold-Synergistic 1a (Q30E)” value was greater than 100 fold.

In the case of CC(C)(C)[C@H](NC(=O)C(C)(O)C(F)(F)F)c1nc(-c2ccc(-c3ccc(-c4c[nH]c([C@@H](NC(=O)C(C)(O)C(F)(F)F)C(C)(C)C)n4)cc3)cc2)c[nH]1 (stereo partly drawn) [Compound L-66a], the “Fold-Synergistic 1a (Q30E)” value was greater than 100 fold.

With CC(C)(C)[C@H](NC(=O)[C@H]1[C@@H]2COC[C@@H]21)c1nc(-c2ccc(-c3ccc(-c4c[nH]c([C@@H](NC(=O)[C@H]5[C@@H]6COC[C@@H]65)C(C)(C)C)n4)cc3)cc2)c[nH]1 [Compound L-67] the “Fold-Synergistic 1a (Q30E)” value was greater than 100 fold.

CC(C)(C)[C@H](NC(=O)[C@@H]1COCCN1CC(F)(F)F)c1nc(-c2ccc(-c3ccc(-c4c[nH]c([C@@H](NC(=O)[C@@H]5COCCN5CC(F)(F)F)C(C)(C)C)n4)cc3)cc2)c[nH]1 [Compound L-68] was tested, and the “Fold-Synergistic 1a (Q30E)” value was greater than 100 fold.

Reference: patent publication US9326973B2, “Hepatitis C virus inhibitors” (priority 2012, dated 2016)
